# Where two headings read alike, the source gives them in different places.
# Key:
# TNKS2 = TNKS2 (Homo sapiens (Human), UniProt Q9H2K2); assay: Biochemical IC50 TNKS2; conditions: read-out: Biochemical IC50 TNKS2
# Description: (§1) XLfit (idbs) was used to determine the IC50-values in inhibition experiments. The following formula was chosen to fit the data points (Langmuir Binding Isotherm): fit=((A+(B*x))+4(C−B)*(1−exp((−1*D)*x)))/D)), res=(y−fit)
# HEK293 = assay: Cellular IC50 HEK293; format: cell-based
# Description: as §1
# [1] = Homo sapiens, HEK293, HEK293; read-out: Cellular IC50 HEK293
# [2] = Homo sapiens, HEK293, read-out: Cellular IC50 HEK293
# Sequence of TNKS2 (Q9H2K2 whole entry): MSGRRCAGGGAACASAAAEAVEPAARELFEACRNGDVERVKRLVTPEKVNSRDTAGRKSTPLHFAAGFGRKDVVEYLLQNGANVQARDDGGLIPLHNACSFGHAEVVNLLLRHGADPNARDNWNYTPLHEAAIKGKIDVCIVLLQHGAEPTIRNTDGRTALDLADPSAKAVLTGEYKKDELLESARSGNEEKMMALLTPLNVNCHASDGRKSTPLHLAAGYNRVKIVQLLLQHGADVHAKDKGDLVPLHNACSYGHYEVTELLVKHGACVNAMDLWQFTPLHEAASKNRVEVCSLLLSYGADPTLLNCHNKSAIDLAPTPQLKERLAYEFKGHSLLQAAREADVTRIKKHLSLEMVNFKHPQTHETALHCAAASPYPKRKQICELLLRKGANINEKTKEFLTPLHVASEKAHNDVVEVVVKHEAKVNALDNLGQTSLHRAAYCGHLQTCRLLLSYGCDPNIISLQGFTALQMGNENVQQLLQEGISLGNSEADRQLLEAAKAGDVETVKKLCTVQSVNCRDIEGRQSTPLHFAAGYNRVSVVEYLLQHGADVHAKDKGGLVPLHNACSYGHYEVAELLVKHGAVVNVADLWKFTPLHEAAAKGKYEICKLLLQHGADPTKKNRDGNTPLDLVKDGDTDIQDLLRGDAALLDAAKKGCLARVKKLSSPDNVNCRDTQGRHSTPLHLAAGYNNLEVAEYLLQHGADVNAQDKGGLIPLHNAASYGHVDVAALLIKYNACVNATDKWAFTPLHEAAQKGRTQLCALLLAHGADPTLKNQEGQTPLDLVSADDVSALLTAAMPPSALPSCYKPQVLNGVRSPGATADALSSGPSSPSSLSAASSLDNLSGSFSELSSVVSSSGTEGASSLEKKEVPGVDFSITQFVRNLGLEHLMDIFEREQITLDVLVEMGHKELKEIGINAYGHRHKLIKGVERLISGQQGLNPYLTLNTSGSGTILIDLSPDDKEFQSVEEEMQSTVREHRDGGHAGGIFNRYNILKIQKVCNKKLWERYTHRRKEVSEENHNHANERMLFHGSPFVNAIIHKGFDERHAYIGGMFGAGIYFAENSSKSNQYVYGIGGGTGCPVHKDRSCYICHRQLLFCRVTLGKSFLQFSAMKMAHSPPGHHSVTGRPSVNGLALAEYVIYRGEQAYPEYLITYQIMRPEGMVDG
Structure (SMILES),IC50 (TNKS2) [nM],IC50 (HEK293; [1]) [nM],"IC50 (HEK293; Homo sapiens, HEK293; read-out: Cellular IC50 HEK293) [nM]",IC50 (HEK293; [2]) [nM]
"O=C(N[C@H]1C[C@H](c2nnc(-c3nccs3)n2-c2cccnc2)C1)c1ccccn1 [Example 109, N-((1r,3r)-3-(4-(pyridin-3-yl)-5-(thiazol-2-yl)-4H-1,2,4-triazol-3-yl)cyclobutyl)picolinamide]",800,4700,,
"O=C(N[C@H]1C[C@H](c2nnc(-c3ccccn3)n2-c2ccccc2F)C1)c1ccnc2cc(F)cnc12 [Example 191, 7-fluoro-N-((1S,3r)-3-(4-(2-fluorophenyl)-5-(pyridin-2-yl)-4H-1,2,4-triazol-3-yl)cyclobutyl)-1,5-naphthyridine-4-carboxamide]",1.8,,3.4,
"CCOc1ccc(-c2nnc([C@H]3C[C@H](NC(=O)c4ccnc5cc(F)cnc45)C3)n2-c2cccnc2)nc1 [Example 164, N-((1r,3r)-3-(5-(5-ethoxypyridin-2-yl)-4-(pyridin-3-yl)-4H-1,2,4-triazol-3-yl)cyclobutyl)-7-fluoro-1,5-naphthyridine-4-carboxamide]",5.8,,,9
"Cc1cccc(-c2nnc([C@H]3C[C@H](NC(=O)c4cccc5nccnc45)C3)n2-c2ccccc2F)n1 [Example 201, N-((1S,3r)-3-(4-(2-fluorophenyl)-5-(6-methylpyridin-2-yl)-4H-1,2,4-triazol-3-yl)cyclobutyl)quinoxaline-5-carboxamide]",1.7,,,1.5
"O=C(N[C@H]1C[C@H](c2nnc(-c3nccs3)n2-c2ccccn2)C1)c1ccnc2cc(F)cnc12 [Example 39, 7-fluoro-N-((1r,3r)-3-(4-(pyridin-2-yl)-5-(thiazol-2-yl)-4H-1,2,4-triazol-3-yl)cyclobutyl)-1,5-naphthyridine-4-carboxamide]",28,16,,
"CCOc1ccc(-c2nnc([C@H]3C[C@H](NC(=O)c4cccc(C(F)(F)F)n4)C3)n2-c2ccccc2F)nc1 [Example 125, N-((1S,3r)-3-(5-(5-ethoxypyridin-2-yl)-4-(2-fluorophenyl)-4H-1,2,4-triazol-3-yl)cyclobutyl)-6-(trifluoromethyl)picolinamide]",28,70,,
"O=C(N[C@H]1C[C@H](c2nnc(-c3nccs3)n2-c2ccccc2F)C1)c1ccccc1 [Example 27, N-((1S,3r)-3-(4-(2-fluorophenyl)-5-(thiazol-2-yl)-4H-1,2,4-triazol-3-yl)cyclobutyl)benzamide]",250,470,,
"CCOc1ccc(-c2nnc([C@H]3C[C@H](NC(=O)c4ccccn4)C3)n2-c2cccc(Cl)c2)nc1 [Example 140, N-((1r,3r)-3-(4-(3-chlorophenyl)-5-(5-ethoxypyridin-2-yl)-4H-1,2,4-triazol-3-yl)cyclobutyl)picolinamide]",13,,,83
"CCOc1ccc(-c2nnc([C@H]3C[C@H](NC(=O)c4cc5occc5[nH]4)C3)n2-c2ccccc2F)nc1 [Example 151, N-((1S,3r)-3-(5-(5-ethoxypyridin-2-yl)-4-(2-fluorophenyl)-4H-1,2,4-triazol-3-yl)cyclobutyl)-4H-furo[3,2-13]pyrrole-5-carboxamide]",14,35,,
"CCOc1ccc(-c2nnc([C@H]3C[C@H](NC(=O)c4cc(C)ccn4)C3)n2-c2ccccc2F)nc1 [Example 103, N-((1S,3r)-3-(5-(5-ethoxypyridin-2-yl)-4-(2-fluorophenyl)-4H-1,2,4-triazol-3-yl)cyclobutyl)-4-methylpicolinamide]",4.5,25,,
"O=C(N[C@H]1C[C@H](c2nnc(-c3cnccn3)n2-c2ccccc2F)C1)c1ccccn1 [Example 91, N-((1S,3r)-3-(4-(2-fluorophenyl)-5-(pyrazin-2-yl)-4H-1,2,4-triazol-3-yl)cyclobutyl)picolinamide]",280,,,355
"O=C(N[C@H]1C[C@H](c2nnc(-c3ccc(OC4CC4)cn3)n2-c2ccccc2F)C1)c1ccccn1 [Example 106, N-((1S,3r)-3-(5-(5-cyclopropoxypyridin-2-yl)-4-(2-fluorophenyl)-4H-1,2,4-triazol-3-yl)cyclobutyl)picolinamide]",8.6,,,49
"CCOc1ccc(-c2nnc([C@H]3C[C@H](NC(=O)c4ccnc5cccnc45)C3)n2-c2ccncc2)nc1 [Example 168, N-((1r,3r)-3-(5-(5-ethoxypyridin-2-yl)-4-(pyridin-4-yl)-4H-1,2,4-triazol-3-yl)cyclobutyl)-1,5-naphthyridine-4-carboxamide]",5.4,,,13
"CCOc1ccc(-c2nnc([C@H]3C[C@H](NC(=O)c4ccnc5cccnc45)C3)n2-c2ccccc2Cl)nc1 [Example 135, N-((1S,3r)-3-(4-(2-chlorophenyl)-5-(5-ethoxypyridin-2-yl)-4H-1,2,4-triazol-3-yl)cyclobutyl)-1,5-naphthyridine-4-carboxamide]",1.9,0.33,,
"CCOc1ccc(-c2nnc([C@H]3C[C@H](NC(=O)c4cccc5cc[nH]c45)C3)n2-c2ccccc2F)nc1 [Example 115, N-((1S,3r)-3-(5-(5-ethoxypyridin-2-yl)-4-(2-fluorophenyl)-4H-1,2,4-triazol-3-yl)cyclobutyl)-1H-indole-7-carboxamide]",10,57,,
"CCOc1ccc(-c2nnc(C34CC(NC(=O)c5ccnc6cccnc56)(C3)C4)n2-c2ccccc2)nc1 [Example 64, N-(3-(5-(5-ethoxypyridin-2-yl)-4-phenyl-4H-1,2,4-triazol-3-yl)bicyclo[1.1.1]pentan-1-yl)-1,5-naphthyridine-4-carboxamide]",1.4,3,,
"CCOc1ccc(-c2nnc([C@H]3C[C@H](NC(=O)c4ccc5ncccc5n4)C3)n2-c2ccncc2)nc1 [Example 169, N-((1r,3r)-3-(5-(5-ethoxypyridin-2-yl)-4-(pyridin-4-yl)-4H-1,2,4-triazol-3-yl)cyclobutyl)-1,5-naphthyridine-2-carboxamide]",28,58,,
"CCOc1ccc(-c2nnc([C@H]3C[C@H](NC(=O)c4ccnc5cc(F)cnc45)C3)n2-c2ccccn2)nc1 [Example 160, N-((1r,3r)-3-(5-(5-ethoxypyridin-2-yl)-4-(pyridin-2-yl)-4H-1,2,4-triazol-3-yl)cyclobutyl)-7-fluoro-1,5-naphthyridine-4-carboxamide]",22,,,9
"CCOc1ccc(-c2nnc([C@H]3C[C@H](NC(=O)c4cc5sc(C)cc5[nH]4)C3)n2-c2ccccc2F)nc1 [Example 150, N-((1S,3r)-3-(5-(5-ethoxypyridin-2-yl)-4-(2-fluorophenyl)-4H-1,2,4-triazol-3-yl)cyclobutyl)-2-methyl-4H-thieno[3,2-b]pyrrole-5-carboxamide]",9.5,16,,
"Cc1cccc(-c2nnc([C@H]3C[C@H](NC(=O)c4cc(F)cc5nccnc45)C3)n2-c2ccccc2F)n1 [Example 202, 7-fluoro-N-((1S,3r)-3-(4-(2-fluorophenyl)-5-(6-methylpyridin-2-yl)-4H-1,2,4-triazol-3-yl)cyclobutyl)quinoxaline-5-carboxamide]",1.6,,,0.169
"CCOc1ccc(-c2nnc([C@H]3C[C@H](NC(=O)c4cccc5c4OCCO5)C3)n2-c2ccccc2F)nc1 [Example 116, N-((1S,3r)-3-(5-(5-ethoxypyridin-2-yl)-4-(2-fluorophenyl)-4H-1,2,4-triazol-3-yl)cyclobutyl)-2,3-dihydrobenzo[b][1,4]dioxine-5-carboxamide]",4.5,47,,
"O=C(N[C@H]1C[C@H](c2nnc(-c3ccncn3)n2-c2ccccc2Cl)C1)c1ncccc1F [Example 18, N-((1S,3r)-3-(4-(2-chlorophenyl)-5-(pyrimidin-4-yl)-4H-1,2,4-triazol-3-yl)cyclobutyl)-3-fluoropicolinamide]",37,57,,
"CCOc1ccc(-c2nnc([C@H]3C[C@H](NC(=O)c4cc5ccncc5[nH]4)C3)n2-c2ccccc2F)nc1 [Example 126, N-((1S,3r)-3-(5-(5-ethoxypyridin-2-yl)-4-(2-fluorophenyl)-4H-1,2,4-triazol-3-yl)cyclobutyl)-1H-pyrrolo[2,3-c]pyridine-2-carboxamide]",4.1,27,,
"O=C(N[C@H]1C[C@H](c2nnc(-c3ccncn3)n2-c2ccccc2Cl)C1)c1ccccc1 [Example 12, N-((1S,3r)-3-(4-(2-chlorophenyl)-5-(pyrimidin-4-yl)-4H-1,2,4-triazol-3-yl)cyclobutyl)benzamide]",5.5,3,,
"CCOc1ccc(C(=O)N[C@H]2C[C@H](c3nnc(-c4ccncn4)n3-c3ccccc3Cl)C2)nc1 [Example 130, N-((1R,3r)-3-(4-(2-chlorophenyl)-5-(pyrimidin-4-yl)-4H-1,2,4-triazol-3-yl)cyclobutyl)-5-ethoxypicolinamide]",4.8,1.4,,
"CCOc1ccc(-c2nnc([C@H]3C[C@H](NC(=O)c4ccnc5cc(F)cnc45)C3)n2-c2ccc(C)s2)nc1 [Example 84, N-((1r,3r)-3-(5-(5-ethoxypyridin-2-yl)-4-(5-methylthiophen-2-yl)-4H-1,2,4-triazol-3-yl)cyclobutyl)-7-fluoro-1,5-naphthyridine-4-carboxamide]",1.6,,,1
"CCOc1ccc(-c2nnc([C@H]3C[C@H](NC(=O)c4cccc5cn[nH]c45)C3)n2-c2ccccc2F)nc1 [Example 156, N-((1S,3r)-3-(5-(5-ethoxypyridin-2-yl)-4-(2-fluorophenyl)-4H-1,2,4-triazol-3-yl)cyclobutyl)-1H-indazole-7-carboxamide]",21,67,,
"O=C(N[C@H]1C[C@H](c2nnc(-c3ccc(OC(F)F)cn3)n2-c2ccccc2F)C1)c1cccc2nccnc12 [Example 185, N-((1S,3r)-3-(5-(5-(difluoromethoxy)pyridin-2-yl)-4-(2-fluorophenyl)-4H-1,2,4-triazol-3-yl)cyclobutyl)quinoxaline-5-carboxamide]",1.9,,,1.2
